A word on the melting point: it is the temperature, or range, at which the solid turns liquid.

As for `O=C(O)Cc1cc2c(cc1Cc1ccccc1)OCO2`, the melting point lay within 116 to 117 °C. `COC(=O)NC1CC(=O)N(c2cc(Cl)cc(Cl)c2)C1=O` (stereo not drawn) came in with a melting point of 136 to 138 °C.

For the compound `CN1CCCC1=NC(=O)Nc1cccc2ccccc12`, the melting point was 148 to 149 °C. Compound `CC(=O)NC[C@H]1CN(c2ccc(N3CCC(O)(CC#N)CC3)c(F)c2)C(=O)O1` displayed a melting point of 162 to 164 °C. In turn, `Fc1ccc2cc(C3=CCNCC3)sc2c1` gave a melting point of 155 to 157 °C. Compound `CCCn1c(-c2ccc(C#C[Si](C(C)C)(C(C)C)C(C)C)cc2)nc2cc(C#N)c(C#N)cc21` registered a melting point of 242 to 243 °C. The same measure for `COc1ccc2c(c1)OCC(/C=C/C=C/C=C/C(=O)O)=C2`: 238 to 240 °C; for `Cc1c(NC(=O)c2ccc(-c3ccc4c(c3)CCCO4)cc2)ccc2cc(CN3CCCC3)cnc12`: 195 to 197 °C; for `N#Cc1ncc(SCC(=O)O)nc1C#N`: 141 to 143 °C.

`CC(=O)c1cc2c(cc1NC(=O)c1coc3ccccc13)OCO2` displayed a melting point of 144 to 145 °C. As to `CC#CCOc1cc(/C=C/C(=O)Nc2ccccc2C(=O)O)ccc1OC`, the melting point was in the range of 170 to 171 °C. Take `Cn1ncc(-c2ccc3c(c2)c(C2=CCN(CCN4CCNC4=O)CC2)cn3-c2ccc(F)cc2)n1`: the melting point was 175 to 177 °C.

`CC(C)C1=C(Sc2ccccc2)C(c2ccc(F)cc2)=C(C(C)O)C(C(C)C)N1C` (stereo not drawn) registered a melting point of 125 to 128 °C. In turn, `Cc1ccc(S(=O)(=O)OCC2COc3ccc4nc(C)oc4c3O2)cc1` (stereo not drawn) yielded a melting point of 123 °C. Turning to `O=[N+]([O-])c1cc(NS(=O)(=O)CCl)ccc1F`, the melting point was in the range of 112 to 113 °C.

For the compound `CCC[C@H](Oc1cc(C)c(-n2cc(C(F)(F)F)cn2)c(C)c1)c1ccc(C(=O)NCCC(=O)O)cc1`, the melting point was in the range of 157 to 159 °C. The compound `OCCc1coc2c(O)cccc12` returned a melting point of 116 to 117 °C.

Compound `c1cnc2cc[nH]c2c1` came in with a melting point of 126 to 128 °C. As to `COC1=CC(=O)c2c(cc(Br)c(O)c2Br)C1=O`, the melting point lay within 224 to 228 °C. `CSc1ccc(C=CC(N)=O)cc1` displayed a melting point of 193 °C. The compound `O=C(Nc1nnn[nH]1)c1cc(Cl)ccc1[N+](=O)[O-]` had a melting point of 268 to 269 °C. `C[C@H](Cn1ncnn1)n1cnc2cc3c(=O)n([C@H](C)Cn4ncnn4)cnc3cc2c1=O`: the melting point was 255 to 256 °C.

The compound `CC(C)(C(=O)O)c1nnc2ccc(NCCCN3CCC(OC(c4ccccc4)c4ccccc4)CC3)nn12` returned a melting point of 155 to 157 °C. Compound `COc1cc(N2CCN(C3CCN(c4cccc5cccnc45)CC3)CC2)c2ncccc2c1` registered a melting point of 194 to 197 °C. `CC(C)(C)OC(=O)NC1CCCCCC=CC2CC2(C(=O)NS(=O)(=O)C2CC2)NC(=O)C2CC(OC(=O)c3ccc(F)cc3)CN2C1=O` (stereo not drawn): the melting point fell in the range of 154 to 156 °C.

`CC1(C)CCC(C)(C)c2cc(C(=O)CSc3ccc(C(=O)O)cc3)ccc21` gave a melting point of 175 to 179 °C. The compound `O=C(OCC(Cl)(Cl)Cl)N1C2CCC1CC(Sc1ccccc1)C2` (stereo not drawn) showed a melting point of 83 to 84.5 °C. Compound `CSc1ncnc2c(N3CCSCC3)nc(N3CCNCC3)nc12` returned a melting point of 177 to 179 °C. As to `CCCCCCCCOc1ccc(-c2ccc(Br)cc2)cc1`, the melting point came to 120 °C. Compound `Clc1cccc(C2=Nc3cccnc3Nc3ccccc32)c1` returned a melting point of 160 °C. Compound `Oc1ccc(Nc2cnc3cnc(-c4ccc(O)cc4)nc3c2)cc1` yielded a melting point of 168 to 170 °C. With `Cc1cc(NC(=O)C(C)(O)COc2cccc(C#N)c2)ccc1[N+](=O)[O-]` (stereo not drawn), the melting point lay within 107 to 110 °C.

The compound `COc1ccc2c(n1)C1(CO2)C(=O)N(Cc2ncc(Cl)n2C)c2ccccc21` (stereo not drawn) returned a melting point of 169 to 171 °C. The compound `O=C(O)CCCN(C(=O)c1cccc(C(F)(F)F)c1)c1cccc2ccccc12` returned a melting point of 128 to 129 °C.

As for `O=S(=O)(c1ccccc1)c1c[nH]c2ncccc12`, the melting point was greater than 250 °C. The same measure for `CCNC(=O)c1cc(N)ccc1[Si](C)(C)C`: 143 to 145 °C; for `O=[N+]([O-])c1cc(Cc2ccc[nH]2)cc(O)c1O`: 115 to 118 °C; for `Cn1cc(-c2cccc(O)c2)c(=O)c(C2CCCCC2)c1`: 155 to 165 °C. In turn, `CC(C)(C)OC(=O)N[C@@H](Cc1ccc(-c2ccccc2)cc1)c1nnnn1CCC#N` registered a melting point of 184 to 185 °C.

`CCCOC1(c2ccc(C)cc2C)N=C(c2ccc(C)cc2C)N=CN1` (stereo not drawn) displayed a melting point of 86 to 88 °C.

In turn, `O=C(NCCCC[C@@H](C(=O)O)n1c2ccccc2c2ccccc21)c1ccc(C(=O)c2ccccc2)cc1` registered a melting point of 97 to 98 °C. The compound `CCOC(=O)c1c(=O)c2cc3c(cc2n2c(C)csc12)OCO3` showed a melting point of 308 to 311 °C.

Compound `NCc1ccc(F)cc1C(F)(F)C(F)(F)c1ccccc1` yielded a melting point of 52.5 to 54 °C. For `CN(C)CC(C)(C)Oc1cnc(Nc2cc(-c3cccc(-n4ncc5cc(C(C)(C)C)cc(F)c5c4=O)c3CO)nn(C)c2=O)cn1`, the melting point fell in the range of 235 to 240 °C.

The compound `Cc1cc(-n2ccnc2)ccc1[N+](=O)[O-]` came in with a melting point of 138 to 140 °C.

Turning to `Cn1c(CCNC(=O)c2cc(F)cc3c2OCOC3)nc(-c2ccncn2)cc1=O`, the melting point fell in the range of 207 to 209 °C. In turn, `Cc1c(CCC(=O)O)c2cc(Br)ccc2n1Cc1ccc(Br)cc1` showed a melting point of 169 to 170 °C. The same measure for `CCOC(=O)CCNCC(O)COc1cccc(C#N)c1` (stereo not drawn): 95 °C. As for `CCOC(=O)Cc1c(C)n(Cc2ccccc2)c2ccc(OCc3nc4ccccc4s3)cc12`, the figure is 106 to 107 °C; as for `CN1CCC(c2c[nH]c3ccc(NC(=O)c4ccc(F)s4)nc23)CC1`, 244 to 245 °C. Take `O=C(O)Cc1cccc2c(-c3ccc([N+](=O)[O-])cc3)nccc12`: the melting point lay in the range of 252 to 254 °C. The compound `CCCCCCCCCCCCc1cc(CO)on1` displayed a melting point of 61 to 63 °C. As for `CCS(=O)(=O)N(CCCCC(N)=O)C1CC(C)(C)Oc2ccc(C)cc21` (stereo not drawn), the figure is 127 to 129 °C. The same measure for `Cc1cc(Br)cnc1CCCCNc1ncc(Cc2cccnc2)cc1N`: 85 to 87 °C; for `CCCCc1oc2ccccc2c1C(=O)NCc1ccc2c(Br)c(OC(Cc3ccccc3)C(=O)O)ccc2c1` (stereo not drawn): 125 to 130 °C; for `CC(=O)Oc1cccc2oc(C(=O)Nc3ccc(CC4SC(=O)NC4=O)cc3)cc(=O)c12` (stereo not drawn): 257 to 260 °C. `CCOc1ccc2[nH]cc(/C(C#N)=C/c3cccnc3)c2c1` came in with a melting point of 196 °C. The same measure for `NC(=O)C(F)(F)Cc1c[nH]c([N+](=O)[O-])n1`: 150 to 152 °C. Consider `Cc1nc(-n2ccnc(C)c2=O)sc1C(=O)NCc1ccccc1`, for which the melting point fell in the range of 186 to 187 °C.

In turn, `COc1ccc2c(ccn2CC(=O)c2ccccc2Br)n1` came in with a melting point of 116 to 117 °C. The same measure for `C=Cc1c(N)cc(-c2ccc(Cl)c(OC)c2F)nc1C(=O)O`: 209 to 211 °C; for `CCOC(=O)c1ccc(-c2ccc(-c3ccc(OC)cc3)c(-c3ccc4c(c3)C(C)(C)CCC4(C)C)c2)cc1`: 112 to 115 °C; for `Cn1nc(-c2c(Cl)cncc2Cl)nc1Cc1ccc(Cl)cc1`: 142 to 143 °C.

The values are drawn from a melting point compilation (Tetko et al.; mined from patent text by program, amines drawn as free bases though some values may be those of a salt).
